Experiments:
Assay type in all cases: biochemical
JAK2 = JAK2 (Homo sapiens, UniProt O60674); experiment: JAK2 inhibition assay (radioactive enzyme assay, as for JAK3); settings: average Ki if more than one value determined
How it was run: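 Both kinases: poly(Glu)4Tyr substrate in 100 mM HEPES pH 7.4, 10 mM MgCl2, 1 mM DTT. Run 20 min at 25° C, TCA stop, filter-bound ³³P counted, Ki(app) fitted after background subtraction. JAK3: final [γ-³³P]ATP 5 μM, enzyme added as 2 nM solution. JAK2: final poly(Glu)4Tyr 15 μM, final ATP 12 μM.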

ROCK = ROCK (Homo sapiens, UniProt Q13464); experiment: ROCK inhibition assay, standard radioactive enzyme assay ("33P")
Chain of ROCK (Q13464 whole entry): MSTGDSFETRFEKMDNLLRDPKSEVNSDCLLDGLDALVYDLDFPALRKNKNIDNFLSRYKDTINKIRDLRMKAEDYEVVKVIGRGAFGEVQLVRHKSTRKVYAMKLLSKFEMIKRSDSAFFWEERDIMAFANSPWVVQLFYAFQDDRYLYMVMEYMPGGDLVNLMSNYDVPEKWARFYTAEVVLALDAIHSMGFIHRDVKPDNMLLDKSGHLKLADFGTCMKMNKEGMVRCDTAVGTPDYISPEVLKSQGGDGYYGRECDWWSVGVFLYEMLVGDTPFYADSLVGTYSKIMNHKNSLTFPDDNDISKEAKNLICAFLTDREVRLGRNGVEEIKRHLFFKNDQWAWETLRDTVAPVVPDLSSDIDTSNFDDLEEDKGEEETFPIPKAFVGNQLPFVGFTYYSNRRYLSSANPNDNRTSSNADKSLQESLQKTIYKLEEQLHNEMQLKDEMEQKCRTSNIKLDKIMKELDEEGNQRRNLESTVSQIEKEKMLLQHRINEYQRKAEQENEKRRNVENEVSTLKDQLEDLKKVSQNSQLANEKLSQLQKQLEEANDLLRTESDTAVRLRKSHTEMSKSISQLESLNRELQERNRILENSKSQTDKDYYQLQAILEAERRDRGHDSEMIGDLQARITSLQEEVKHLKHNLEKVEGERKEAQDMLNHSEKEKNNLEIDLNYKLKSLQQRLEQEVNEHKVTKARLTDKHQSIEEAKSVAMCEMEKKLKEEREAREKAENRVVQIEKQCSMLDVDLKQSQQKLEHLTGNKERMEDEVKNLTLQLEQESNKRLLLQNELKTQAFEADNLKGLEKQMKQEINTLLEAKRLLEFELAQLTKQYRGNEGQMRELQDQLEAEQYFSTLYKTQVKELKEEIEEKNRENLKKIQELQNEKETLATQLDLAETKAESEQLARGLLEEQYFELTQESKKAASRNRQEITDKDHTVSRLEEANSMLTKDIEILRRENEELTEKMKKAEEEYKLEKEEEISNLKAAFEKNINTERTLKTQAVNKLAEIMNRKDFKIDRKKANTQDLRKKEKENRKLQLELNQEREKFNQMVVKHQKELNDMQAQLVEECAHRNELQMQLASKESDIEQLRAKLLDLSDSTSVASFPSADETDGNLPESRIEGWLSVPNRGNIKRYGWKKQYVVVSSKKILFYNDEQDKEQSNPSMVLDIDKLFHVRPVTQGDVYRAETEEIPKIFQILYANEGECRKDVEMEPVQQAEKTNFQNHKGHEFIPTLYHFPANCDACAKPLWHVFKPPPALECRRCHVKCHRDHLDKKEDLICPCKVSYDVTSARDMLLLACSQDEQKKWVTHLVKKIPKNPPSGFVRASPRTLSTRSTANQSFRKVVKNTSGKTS
Protocol: Some compounds were screened for their ability to inhibit ROCK using a standard radioactive enzyme assay. Assays were carried out in a solution containing 100 mM HEPES (pH 7.5), 10 mM MgCl2, 25 mM NaCl, 2 mM DTT, and 1.5% DMSO. Final substrate concentrations in the assay were 13 μM [γ-^33P] ATP (25 mCi ^33P ATP/mmol ATP, Perkin Elmer, Cambridge, Mass./Sigma Chemicals, St Louis, Mo.) and 27 μM Myelin Basic Protein (MBP). Final enzyme concentration in the assay was 5 nM ROCK. Assays were carried out at room temperature. 1.5 μl of DMSO stock containing serial dilutions of the compound of the present invention (concentrations ranging from 10 μM to 2.6 nM) was placed in a 96 well plate. 50 μl of Solution 1 (100 mM HEPES (pH 7.5), 10 mM MgCl2, […]) was added to the plate. The reaction was initiated by addition of 50 μl of Solution 2 (100 mM HEPES (pH 7.5), 10 mM MgCl2, 4 mM DTT, […] and 10 nM ROCK). After 2 hours the reaction was quenched with 50 μL of 30% trichloroacetic acid (TCA, Fisher) containing 9 mM ATP. Transfer of 140 μL of the quenched reaction to a glass fiber filter plate (Corning, Cat. No. 3511) was followed by washing 3 times with 5% TCA. 50 μL of Optima Gold scintillation fluid (Perkin Elmer) was added and the plates were counted on a Top Count (Perkin Elmer). After removing mean background values for all of the data points the data was fit using Prism software to obtain a Ki(app).

[1] = biological target: T1, full length Aurora-A (AA 1-403) (Homo sapiens, UniProt O14965); experiment: Aurora-A inhibition assay, standard coupled enzyme system; settings: average Ki if more than one value determined
T1 construct: full length Aurora-A (AA 1-403)
T1 sequence (O14965 1-403): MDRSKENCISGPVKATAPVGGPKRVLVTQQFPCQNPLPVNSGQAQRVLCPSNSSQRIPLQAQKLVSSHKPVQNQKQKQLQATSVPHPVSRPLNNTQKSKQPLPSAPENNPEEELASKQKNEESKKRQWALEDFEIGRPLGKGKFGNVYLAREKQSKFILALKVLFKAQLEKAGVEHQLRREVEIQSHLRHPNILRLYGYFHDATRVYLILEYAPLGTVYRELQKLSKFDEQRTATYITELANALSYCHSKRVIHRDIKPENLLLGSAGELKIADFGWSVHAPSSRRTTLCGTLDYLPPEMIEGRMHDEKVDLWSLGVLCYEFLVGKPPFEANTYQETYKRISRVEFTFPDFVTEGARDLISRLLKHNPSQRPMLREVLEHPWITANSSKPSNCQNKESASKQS

Aurora-C = biological target: T2, Aurora-C (Homo sapiens, UniProt Q9UQB9); experiment: Aurora-C inhibition assay, coupled enzyme system as for Aurora-A; settings: average Ki if more than one value determined
T2 sequence (Q9UQB9 1-309): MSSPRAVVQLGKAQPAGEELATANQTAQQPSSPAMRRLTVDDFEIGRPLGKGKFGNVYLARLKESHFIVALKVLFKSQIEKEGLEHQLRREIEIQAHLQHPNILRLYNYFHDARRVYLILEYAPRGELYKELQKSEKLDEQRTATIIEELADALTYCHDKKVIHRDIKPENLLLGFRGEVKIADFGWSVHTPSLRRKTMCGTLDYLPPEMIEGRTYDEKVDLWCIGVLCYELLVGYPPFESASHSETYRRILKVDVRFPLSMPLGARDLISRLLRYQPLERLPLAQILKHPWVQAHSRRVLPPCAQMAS
How it was run: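 Coupled PK/LDH NADH-depletion assay with 35 nM enzyme, 200 μM ATP and 800 μM LRRASLG peptide in 100 mM HEPES pH 7.5, 10 mM MgCl2, 25 mM NaCl, 1 mM DTT, 3% DMSO at 30 °C. Compound (0.002-30 μM) was preincubated 10 min before ATP start; rates over 10 min gave Ki by nonlinear regression. Aurora-C run the same way.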

Aurora-B = Aurora-B (Homo sapiens, UniProt Q96GD4); experiment: Aurora-B inhibition assay, radioactive assay; settings: average Ki if more than one value determined
Chain of Aurora-B (Q96GD4 whole entry): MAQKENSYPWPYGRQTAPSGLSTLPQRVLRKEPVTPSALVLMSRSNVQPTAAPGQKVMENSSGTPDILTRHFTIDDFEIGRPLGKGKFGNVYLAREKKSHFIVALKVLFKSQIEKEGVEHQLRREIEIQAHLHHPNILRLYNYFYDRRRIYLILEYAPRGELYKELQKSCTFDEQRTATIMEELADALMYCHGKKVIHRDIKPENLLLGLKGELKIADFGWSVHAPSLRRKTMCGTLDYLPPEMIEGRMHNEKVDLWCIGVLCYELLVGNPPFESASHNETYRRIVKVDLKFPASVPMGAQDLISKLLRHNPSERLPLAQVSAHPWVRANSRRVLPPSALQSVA
How it was run: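 Radiometric [γ-33P]ATP kinase assay run as described for JAK3/ROCK but with Aurora-B protein; 33P incorporation into substrate measured by filter capture and scintillation counting after TCA quench. Background-subtracted data fit to give Ki(app).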

Chain of JAK2 (O60674 whole entry, species assumed): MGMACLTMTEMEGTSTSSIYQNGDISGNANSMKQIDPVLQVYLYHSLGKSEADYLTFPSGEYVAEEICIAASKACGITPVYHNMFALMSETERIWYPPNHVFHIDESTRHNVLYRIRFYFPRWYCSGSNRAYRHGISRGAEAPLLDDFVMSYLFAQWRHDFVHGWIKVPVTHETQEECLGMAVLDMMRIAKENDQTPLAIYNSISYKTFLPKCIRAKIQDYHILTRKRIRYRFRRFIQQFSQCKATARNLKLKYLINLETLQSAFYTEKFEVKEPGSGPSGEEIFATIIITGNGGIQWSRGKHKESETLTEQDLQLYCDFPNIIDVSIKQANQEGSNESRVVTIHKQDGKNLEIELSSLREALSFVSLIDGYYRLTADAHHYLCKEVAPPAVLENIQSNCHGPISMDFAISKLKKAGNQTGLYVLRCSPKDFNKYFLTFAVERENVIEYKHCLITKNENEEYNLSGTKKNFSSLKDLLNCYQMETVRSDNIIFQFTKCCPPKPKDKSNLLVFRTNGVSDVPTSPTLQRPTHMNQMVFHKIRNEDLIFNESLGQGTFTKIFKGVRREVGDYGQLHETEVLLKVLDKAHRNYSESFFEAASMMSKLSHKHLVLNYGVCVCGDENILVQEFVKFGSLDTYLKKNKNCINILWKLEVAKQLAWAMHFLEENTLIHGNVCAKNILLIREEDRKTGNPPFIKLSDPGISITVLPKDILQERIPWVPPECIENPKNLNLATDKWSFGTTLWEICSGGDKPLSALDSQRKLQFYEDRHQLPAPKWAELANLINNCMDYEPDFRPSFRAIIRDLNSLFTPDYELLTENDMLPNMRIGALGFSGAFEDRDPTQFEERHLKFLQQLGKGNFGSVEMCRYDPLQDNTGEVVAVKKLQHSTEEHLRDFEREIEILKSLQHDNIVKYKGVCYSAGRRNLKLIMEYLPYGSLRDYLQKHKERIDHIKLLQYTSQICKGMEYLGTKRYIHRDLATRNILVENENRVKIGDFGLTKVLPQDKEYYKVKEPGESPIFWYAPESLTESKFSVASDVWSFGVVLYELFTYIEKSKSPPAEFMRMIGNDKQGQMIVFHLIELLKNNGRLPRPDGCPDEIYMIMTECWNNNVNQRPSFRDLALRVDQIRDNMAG

| SMILES | Ki (JAK2) | Ki (ROCK) | Ki [1] | Ki (Aurora-C) | Ki (Aurora-B) |
| --- | --- | --- | --- | --- | --- |
| COc1cnc2[nH]cc(-c3cccc(N4C[C@@H](C)N(C(C)=O)[C@@H](C)C4)n3)c2c1 [Compound 18] | < 500 nM | 500 to 5000 nM | 500 to 5000 nM |  |  |
| CC(=O)N1[C@H](C)CN(c2cccc(-c3c[nH]c4ncc(Cl)cc34)n2)C[C@@H]1C [Compound 19] | < 500 nM | < 500 nM | < 500 nM |  |  |
| C[C@H](Nc1nc(-c2c[nH]c3ncc(Cl)cc23)ncc1F)C(=O)NCC(F)(F)F [Compound 369] |  |  | < 500 nM | < 500 nM | < 500 nM |

Further lines, results first:

| Ki (JAK2) | Ki (ROCK) | Ki [1] | Ki (Aurora-C) | Ki (Aurora-B) | SMILES |
| --- | --- | --- | --- | --- | --- |
| < 500 nM | < 500 nM | < 500 nM |  |  | CCOC(=O)N1CCCN(c2nccc(-c3c[nH]c4ncc(OC)cc34)n2)CC1 [Compound 33] |
| < 500 nM | < 500 nM | < 500 nM |  |  | COC(=O)c1cnc2[nH]cc(-c3cccc(N4C[C@@H](C)N(C(C)=O)[C@@H](C)C4)n3)c2c1 [Compound 35] |
| < 500 nM |  | < 500 nM |  | < 500 nM | C[C@H](Nc1cccc(-c2c[nH]c3ncc(Cl)cc23)n1)c1ccc(F)cc1 [Compound 395] |

Reference: patent US8501446B2 (Vertex Pharmaceuticals Incorporated, priority 2004, dated 2013)
